Reference: patent US4525360A, “Anti-psychotic phenylindene derivatives and acid addition salts thereof” (Kefalas A/S, priority 1982, dated 1985)
Counter-ions that a name gives are not always drawn. Like-named read-outs stand apart in the source and are kept apart here.

How the values were obtained:
[1] = test system: 5-HT, rat fundus strip; assay: 5-HT antagonism, rat fundus strip; conditions: read-out: 5HT rat-fundus-strip IC50
Protocol: 5-HT antagonism, rat fundus strip
5-hydroxytryptamine (5-HT).
Rats are killed by a blow on the head and exsanguinated. The stomach fundus is removed and carefully cleaned with Krebs solution at 30° C. The fundus is then stretched over a rounded end of a plastic rod about the thickness of a pencil, whereby the longitudinal direction of the muscle fibers is visible. The fundus is halved by carefully cutting in the central line and in the direction of these fibres. Along this incision two strips with a length of 15-25 mm and with width 1.5-2.5 mm are cut, one from each half of the fundus. The mucosa is then carefully removed. A thread is attached to each end of a strip. One thread is fixed to a pin in the bottom of the organ bath and the other thread is fixed to an isotonic transducer. The strip is kept under a tone of 1.5 to 2.0 g. […] Concentration response curves to 5-HT are obtained by adding 5-HT to the bath in increasing concentrations (0.1 ml of 10^-9 M resulting in 1.0×10^-11 M in the bath, 0.2 ml of 10^-9 M resulting in 3.0×10^-11 M, 0.1 ml of 10^-8 M resulting in about 1×10^-10 M, 0.2 ml of 10^-8 M resulting in about 3×10^-10 M--0.2 ml of 10^-4 resulting in about 3×10^-6 M in the bath). Each concentration of 5-HT is allowed to exert its maximal effect (1-10 min) before the next is added. When the maximal response is reached the tissue is carefully washed. The test substance is added to the bath for 10 min. before examining its effect on a new cumulative 5-HT concentration response curve. From the control concentration effect curve the Km for 5-HT is calculated.
The results are recorded as mean percentage inhibition.
Substrate concentration for 5-HT: 1.0×10^-9 M to 1.0×10^-8 M.
Michaelis-Menten constant for 5-HT is estimated each time.

[2] = Catalepsy wire mesh, rat, max.; format: in vivo, rats; conditions: po, read-out: Catalep. ED50 (po)
Protocol: Catalepsy wire mesh, rat, max. (ED50 μmol/kg p.o.)
A vertical wire netting (50 cm×49 cm). The meshes (openings) of the netting are square (1 cm×1 cm). The wire diameter is 2 mm.
The animals are labeled and used in groups of five. The test substance is administered orally (p.o.) at 4 dose levels selected from a fixed dose scale.
The animals are placed in the middle of the vertical wire netting 60, 120, 180, 240, 300 and 360 minutes after administration of the test compound. The animals are considered cataleptic when they remain immobile during a period of 15 seconds. This cataleptic reaction is designated +.
If the rats are "atonic" and passively slide down the wire mesh they are considered not cataleptic. If the animals climb up and down the wire mesh they are nor cataleptic. In both situations the designation - is used.

[3] = test system: methylphenidate; assay: Methylphenidate antagonism, mice i.p.; format: in vivo; conditions: Mus musculus, ip
Protocol: Methylphenidate antagonism (ED50 μmol/kg i.p.)
Perspex observation cages without bottom and lid, consisting of 5 sections each measuring 12×25×30 cm.
Two hours after injection of test substance, methylphenidate, 60 mg/kg, is injected s.c. After administration of methylphenidate the mice are placed in the observation cages, 2 in each cage, where they remain for exactly 1 hour. The cages are placed on corrugated paper, the corrugations facing upwards. It is examined whether the mice have been biting the corrugated paper or not.
The result is stated in fractions: 0/3, 1/3, 2/3 and 3/3 where 0, 1, 2 and 3 are the number of pairs which have not been biting on receipt of the dose in question.

[4] = read-out: MePh Antag. ED50 (ip)
[5] = 10 min, Table 1, rat fundus strip in vitro, 10 min pre-exposure
[6] = Table 1, mice, i.p., 2 h before methylphenidate 60 mg/kg s.c., read-out: MePh Antag. ED50 (ip)
[7] = Table 1, rat, p.o., max. effect within 6 h
[8] = Table 2, hydroxyindane intermediates, mice, i.p., read-out: MePh Antag. ED50

Compound	IC50 [1, 5] [nM]	ED50 [3, 6] [µmol/kg]	ED50 [2, 7] [µmol/kg]	further results
CN(C)CCCN1c2ccccc2Sc2ccc(Cl)cc21 [Chlorpromazine, reference compound]	–	–	–	IC50 ([1]; Rattus norvegicus, 10 min): > 5000 nM; ED50 ([2]; Rattus norvegicus, 6 h): 70 µmol/kg
OCCN1CCN(CCCN2c3ccccc3Sc3ccc(C(F)(F)F)cc32)CC1 [Fluphenazine, reference compound]	–	–	–	ED50 [3, 4]: 0.07 µmol/kg; ED50 ([2]; Rattus norvegicus, 6 h): 0.55 µmol/kg
O=C(CCCN1CCC(O)(c2ccc(Cl)cc2)CC1)c1ccc(F)cc1 [Haloperidol, reference compound]	–	–	–	ED50 [3, 4]: 0.11 µmol/kg; ED50 ([2]; Rattus norvegicus, 6 h): 1 µmol/kg
CN1CCC(C2C=C(c3ccc(F)cc3)c3ccc(F)cc32)CC1 (stereo not drawn) [Lu 19-004, 6-Fluoro-3-(4'-fluorophenyl)-1-(1-methyl-4-piperidyl)-2-indene]	1100	12.2	64.2	–
Cc1ccc2c(c1)C(O)(C1=CCN(C)CC1)CC2c1ccc(F)cc1 (stereo not drawn) [Lu 19-131, 3-(4'-Fluorophenyl)-1-hydroxy-6-methyl-1-(1-methyl-1,2,3,6-tetrahydropyrid-4-yl)indane]	–	–	–	ED50 [3, 8]: 14.8 µmol/kg
OC1(C2CCNCC2)CC(c2ccc(F)cc2)c2ccc(F)cc21 (stereo not drawn) [Lu 19-139, 6-Fluoro-3-(4'-fluorophenyl)-1-hydroxy-1-(4-piperidyl)indane]	–	–	–	ED50 [3, 8]: 15.6 µmol/kg
CN1CCC(=C2C=C(c3ccc(F)cc3)c3ccc(F)cc32)CC1 [Lu 19-151, 6-Fluoro-3-(4'-fluorophenyl)-1-(1-methyl-4-piperidylidenyl)-2-indene, hydrochloride]	7500	32.5	32.9	–
Cc1ccc2c(c1)C(O)(C1=CCN(CCO)CC1)CC2c1ccc(F)cc1 (stereo not drawn) [Lu 19-154, 3-(4'-Fluorophenyl)-1-hydroxy-1-(1-hydroxyethyl-1,2,3,6-tetrahydropyrid-4-yl)-6-methylindane]	–	–	–	IC50 ([1]; Table 2, hydroxyindane intermediates, rat fundus strip in vitro): 5.4 nM; ED50 [3, 8]: 6.2 µmol/kg
OCCN1CC=C(C2=CC(c3ccc(F)cc3)c3ccc(F)cc32)CC1 (stereo not drawn) [Lu 19-157, 6-Fluoro-3-(4'-fluorophenyl)-1-(1-hydroxyethyl-1,2,3,6-tetrahydropyrid-4-yl)-1-indene, hydrobromide]	330	15.8	55.3	–
CN1CC=C(C2=CC(c3ccc(F)cc3)c3ccc(Cl)cc32)CC1 (stereo not drawn) [Lu 20-079, 6-Chloro-3-(4'-fluorophenyl)-1-(1-methyl-1,2,3,6-tetrahydropyrid-4-yl)-1-indene, hydrobromide]	–	3	–	–
O=C1NCCN1CCN1CCC(C2=CC(c3ccc(F)cc3)c3ccc(F)cc32)CC1 (stereo not drawn) [Lu 20-087, 6-Fluoro-3-(4'-fluorophenyl)-1-(1-(2-imidazolidinon-1-ylethyl)-4-piperidyl)-1-indene, oxalate]	–	10.8	–	–
CC(C)c1ccc2c(c1)C(C1CCN(CCO)CC1)=CC2c1ccc(F)cc1 (stereo not drawn) [Lu 20-109, 3-(4'-Fluorophenyl)-1-(1-hydroxyethyl-4-piperidyl)-6-(2-propyl)-1-indene, hydrochloride]	–	1.1	–	–
Cc1ccc2c(c1)C(C1CCN(CCN3CCOC3=O)CC1)=CC2c1ccc(F)cc1 (stereo not drawn) [Lu 21-002, 3-(4'-Fluorophenyl)-6-methyl-1-(1-(2-oxazolidinon-3-ylethyl)-4-piperidyl)-1-indene, trifluoroacetate]	–	1.7	–	–

More lines, main results first:

IC50 [1, 5] [nM]	Compound	ED50 [3, 6] [µmol/kg]	ED50 [2, 7] [µmol/kg]	further results
500	COc1ccc2c(c1)C(C1=CCN(CCO)CC1)=CC2c1ccc(F)cc1 (stereo not drawn) [Lu 20-021, 3-(4'-Fluorophenyl)-1-(1-hydroxyethyl-1,2,3,6-tetrahydropyrid-4-yl)-6-methoxy-1-indene, hydrobromide]	11.6	–	–
240	CN1CC=C(C2=CC(c3ccc(F)cc3)c3ccc(F)cc32)CC1 (stereo not drawn) [Lu 20-025, 6-Fluoro-3-(4'-fluorophenyl)-1-(1-methyl-1,2,3,6-tetrahydropyrid-4-yl)-1-indene, hydrobromide]	7.6	5.3	–
200	CN1CCC(C2=CC(c3ccc(F)cc3)c3ccc(F)cc32)CC1 (stereo not drawn) [Lu 20-028, 6-Fluoro-3-(4'-fluorophenyl)-1-(1-methyl-4-piperidyl)-1-indene, hydrobromide]	0.78	6.2	–
160	COc1ccc2c(c1)C(C1CCN(CCO)CC1)=CC2c1ccc(F)cc1 (stereo not drawn) [Lu 20-033, 3-(4'-Fluorophenyl)-1-(1-hydroxyethyl-4-piperidyl)-6-methoxy-1-indene, hydrobromide]	18.3	6.2	–
28	Cc1ccc2c(c1)C(C1=CCN(CCO)CC1)C=C2c1ccc(F)cc1 (stereo not drawn) [Lu 20-038, 3-(4'-Fluorophenyl)-1-(1-hydroxyethyl-1,2,3,6-tetrahydropyrid-4-yl)-6-methyl-2-indene, hydrobromide]	0.89	3.8	–
1900	Cc1ccc2c(c1)C(C1CCN(CCO)CC1)C=C2c1ccc(F)cc1 (stereo not drawn) [Lu 20-039, 3-(4'-Fluorophenyl)-1-(1-hydroxyethyl-4-piperidyl)-6-methyl-2-indene, hydrobromide]	93	> 93	–
62	Cc1ccc2c(c1)C(C1=CCN(C)CC1)C=C2c1ccc(F)cc1 (stereo not drawn) [Lu 20-040, 3-(4'-Fluorophenyl)-6-methyl-1-(1-methyl-1,2,3,6-tetrahydropyrid-4-yl)-2-indene, hydrobromide]	0.7	5.5	–
85	Cc1ccc2c(c1)C(C1=CCN(C)CC1)=CC2c1ccc(F)cc1 (stereo not drawn) [Lu 20-041, 3-(4'-Fluorophenyl)-6-methyl-1-(1-methyl-1,2,3,6-tetrahydropyrid-4-yl)-1-indene, hydrobromide]	0.14	1.6	–
280	Cc1ccc2c(c1)C(=C1CCN(CCO)CC1)C=C2c1ccc(F)cc1 [Lu 20-044, 3-(4'-Fluorophenyl)-1-(1-hydroxyethyl-4-piperidylidenyl)-6-methyl-2-indene,hydrobromide]	5.1	–	–
42	Cc1ccc2c(c1)C(C1CCN(C)CC1)=CC2c1ccc(F)cc1 (stereo not drawn) [Lu 20-048, 3-(4'-Fluorophenyl)-6-methyl-1-(1-methyl-4-piperidyl)-1-indene, hydrobromide]	0.53	3.4	–
22	Cc1ccc2c(c1)C(C1CCN(CCN3CCNC3=O)CC1)=CC2c1ccc(F)cc1 (stereo not drawn) [Lu 20-064, 3-(4'-Fluorophenyl)-1-(1-(2-imidazolidinon-1-ylethyl)-4-piperidyl)-6-methyl-1-indene, oxalate]	0.86	6.7	–
120	O=C1NCCN1CCN1CCC(C2=CC(c3ccc(F)cc3)c3ccccc32)CC1 (stereo not drawn) [Lu 20-078, 3-(4'-Fluorophenyl)-1-(1-(2-imidazolidinon-1-ylethyl)-4-piperidyl)-1-indene, oxalate]	16.5	–	–
1500	O=C1NCCN1CCN1CCC(C2C=C(c3ccc(F)cc3)c3ccccc32)CC1 (stereo not drawn) [Lu 20-082, 3-(4'-Fluorophenyl)-1-(1-(2-imidazolidinon-1-ylethyl)-4-piperidyl)-2-indene]	70.9	–	–
5000	CC(C)c1ccc2c(c1)C(C1=CCN(C)CC1)=CC2c1ccc(F)cc1 (stereo not drawn) [Lu 20-099, 3-(4'-Fluorophenyl)-1-(1-methyl-1,2,3,6-tetrahydropyrid-4-yl)-6-(2-propyl)-1-indene, hydrobromide]	5.6	–	–
